Measurements published in patent publication US4795812A, “4-substituted-6-aryl-pyrimidine compounds” (The Upjohn Company, priority 1986, dated 1989).
≈ marks a conversion by molar mass, not a printed value. Like-named read-outs stand apart in the source and are kept apart here.

Assays:
[1] = tested on: L-1210 mouse leukemia cells; experiment: L-1210 tube dilution assay, inhibition of mouse leukemia cell growth in vitro; format: cell-based; details: for inhibition of growth of L-1210 cells (in words): in vitro; for IC50 / IC90: Mus musculus
Description: ID50 and ID90 refer to the concentration of compound needed to inhibit cell growth by 50 and 90 percent, respectively.

S. pyogenes = experiment: In vitro disk plate assay, S. pyogenes; format: cell-based, Streptococcus pyogenes; details: medium D (Brain Heart Infusion Agar); 1 mg/ml in distilled water, 1/2 inch disk, 18 hours
Description: (§1) The antibacterial spectrum of 4-(1-azindinyl)-6-phenyl-2-pyrimidinamine was determined in an in vitro disk plate assay. The assay procedure is as follows:
(§2) A solution of 4-(1-aziridinyl)-6-phenyl-2-pyrimidinamine was prepared at 1 mg/ml in distilled water. Paper assay disks (1/2 inch) were dripped into the solution and spotted on seeded agar trays.

K. pneumoniae = experiment: In vitro disk plate assay, K. pneumoniae; format: cell-based; details: medium A (Streptomycin Assay Agar); 1 mg/ml in distilled water, 1/2 inch disk, 18 hours
Description: as §1, §2

[2] = tested on: Rhodopseudomonas spheroides; experiment: In vitro disk plate assay, Rhodopseudomonas spheroides; format: cell-based; details: medium F (Plate Count Medium); 1 mg/ml in distilled water, 1/2 inch disk, 18 hours
Description: as §1, §2

B. fragilis = experiment: In vitro disk plate assay, B. fragilis; format: cell-based; details: medium H (Schaedler Agar); 1 mg/ml in distilled water, 1/2 inch disk, 18 hours
Description: as §1, §2

P. vulgaris = experiment: In vitro disk plate assay, Proteus vulgaris; format: cell-based
Description: as §1, §2

S. schottmuelleri = experiment: In vitro disk plate assay, S. schottmuelleri; format: cell-based; details: medium B (Nutrient Agar); 1 mg/ml in distilled water, 1/2 inch disk, 18 hours
Description: as §1, §2

E. coli = experiment: In vitro disk plate assay, E. coli; format: cell-based; details: 1 mg/ml in distilled water, 1/2 inch disk, 18 hours
Description: as §1, §2

S. pastorianus = experiment: In vitro disk plate assay, S. pastorianus; format: cell-based; details: medium G (Gray's Medium); 1 mg/ml in distilled water, 1/2 inch disk, 18 hours
Description: as §1, §2

L-1210 leukemia = experiment: In vivo L-1210 leukemia test in mice (i.p.); set-up: species or system mouse; details: for % ILS (% increase in life span of treated compared to control animals) / Weight Change: i.p.-L1210, daily × 9, i.p.; for % ILS (% increase in life span of treated compared to control animals): Klucel suspension; for Weight Change: between days 1 and 5 after tumor inoculation
Description: (§3) The P-388 mouse leukemia test is described in detail in a publication by G. L. Neil, et al, Cancer Treatment Reports 63, 1971-1978 (1979).
(§4) ^a mg/kg/day, daily × 9, i.p., administered as a Klucel
(§5) ^b % increase in life span of treated compared to control animals.
(§6) ^c g/mouse between days 1 and 5 after tumor inoculation.
(§7) The NCI-designated criteria of significant activity for synthetic agents in these 3 systems are: for P388, 20% ILS; L1210 and B16, 25% ILS.

P388 leukemia = experiment: In vivo P-388 mouse leukemia test (i.p.); details: for % ILS (% increase in life span of treated compared to control animals) / Weight Change: daily × 9, i.p.; for % ILS (% increase in life span of treated compared to control animals): Klucel suspension; for Weight Change: between days 1 and 5 after tumor inoculation
Description: as §3, §4, §5, §6, §7

Ps. aeruginosa = experiment: In vitro disk plate assay, Ps. aeruginosa; format: cell-based; details: medium B (Nutrient Agar); 1 mg/ml in distilled water, 1/2 inch disk, 18 hours
Description: as §1, §2

M. avium = experiment: In vitro disk plate assay, M. avium; format: cell-based; details: medium D (Brain Heart Infusion Agar); 1 mg/ml in distilled water, 1/2 inch disk, 18 hours
Description: as §1, §2

S. aureus = experiment: In vitro disk plate assay, S. aureus; format: cell-based; details: medium B (Nutrient Agar); 1 mg/ml in distilled water, 1/2 inch disk, 18 hours
Description: as §1, §2

S. lutea = experiment: In vitro disk plate assay, S. lutea; format: cell-based; details: 1 mg/ml in distilled water, 1/2 inch disk, 18 hours
Description: as §1, §2

B-16 melanoma = experiment: In vivo B-16 melanoma test in mice (i.p.); set-up: species or system mouse; details: for % ILS (% increase in life span of treated compared to control animals) / Weight Change: i.p.-B16, daily × 9, i.p.; for % ILS (% increase in life span of treated compared to control animals): Klucel suspension; for Weight Change: between days 1 and 5 after tumor inoculation
Description: as §3, §4, §5, §6, §7

test organisms = experiment: In vitro disk plate assay, test organisms other than Proteus vulgaris; format: cell-based
Description: as §1, §2

[3] = L1210 cells in vitro, 50 percent inhibition of cell growth, read-out: L1210 ID50
[4] = L1210 cells in vitro, 90 percent inhibition of cell growth, read-out: L1210 ID90
[5] = i.p.-P388, first series, 5 mg/kg/day
[6] = i.p.-P388, first series, 10 mg/kg/day
[7] = i.p.-P388, first series, 20 mg/kg/day
[8] = i.p.-P388, first series, 40 mg/kg/day
[9] = i.p.-P388, second series, 5 mg/kg/day
[10] = i.p.-P388, second series, 10 mg/kg/day
[11] = i.p.-P388, second series, 20 mg/kg/day
[12] = i.p.-P388, second series, 40 mg/kg/day

## Nc1nc(Cl)c(Cl)c(-c2ccccc2)n1 [Example 7, 4,5-dichloro-6-phenyl-2-pyrimidinamine]
[1]
  inhibition of growth of L-1210 cells (in words): inhibit the growth of L-1210 mouse leukemia cells in vitro

## Nc1nc(Cl)c(F)c(-c2ccccc2)n1 [drawing 7]
[1]; [3]
  IC50: 0.18 µg/mL (≈ 0.805 µM)
[1]; [4]
  IC90: 0.55 µg/mL (≈ 2.46 µM)

## Nc1nc(-c2ccccc2)c(Br)c(N2CC2)n1 [drawing 5]
[1]; L1210, read-out: L1210 ID50
  IC50: 1.2 µg/mL (≈ 4.12 µM)
[1]; L1210, read-out: L1210 ID90
  IC90: 3.2 µg/mL (≈ 11 µM)

## Nc1nc(Cl)c(I)c(-c2ccccc2)n1 [drawing 9]
[1]; [3]
  IC50: 1.8 µg/mL (≈ 5.43 µM)
[1]; [4]
  IC90: 3.9 µg/mL (≈ 11.8 µM)

## Nc1nc(Cl)cc(-c2ccccc2)n1 [drawing 11]
[1]; [3]
  IC50: 8.2 µg/mL (≈ 39.9 µM)
[1]; [4]
  IC90: 19 µg/mL (≈ 92.4 µM)

## Nc1nc(-c2ccccc2)cc(N2CC2)n1 [Example 2, 4-(1-aziridyl)-6-phenyl-2-pyrimidinamine]
S. pyogenes
  Zone of Inhibition: 21 mm
K. pneumoniae
  Zone of Inhibition: 0 mm
[2]
  Zone of Inhibition: 18 mm
B. fragilis
  Zone of Inhibition: 23 mm
P. vulgaris; medium B (Nutrient Agar), 1 mg/ml in distilled water, 1/2 inch disk, 18 hours
  Zone of Inhibition: 0 mm
S. schottmuelleri
  Zone of Inhibition: 0 mm
E. coli; medium B (Nutrient Agar)
  Zone of Inhibition: 0 mm
E. coli; medium E (Synthetic Medium)
  Zone of Inhibition: 0 mm
S. pastorianus
  Zone of Inhibition: 0 mm
L-1210 leukemia; 5 mg/kg/day
  % ILS (% increase in life span of treated compared to control animals): 0%
  Weight Change: +1.2 g/mouse
L-1210 leukemia; 10 mg/kg/day
  % ILS (% increase in life span of treated compared to control animals): 0%
  Weight Change: +1.5 g/mouse
L-1210 leukemia; 20 mg/kg/day
  % ILS (% increase in life span of treated compared to control animals): 9%
  Weight Change: +0.6 g/mouse
L-1210 leukemia; 40 mg/kg/day
  % ILS (% increase in life span of treated compared to control animals): 24%
  Weight Change: -2.4 g/mouse
L-1210 leukemia; mice
  in vivo activity against L-1210 leukemia (in words): demonstrated activity in vivo against P388 and L-1210 leukemias in mice
P388 leukemia; [5]
  % ILS (% increase in life span of treated compared to control animals): 10%
  Weight Change: +1.8 g/mouse
P388 leukemia; [6]
  % ILS (% increase in life span of treated compared to control animals): 11%
  Weight Change: +2.1 g/mouse
P388 leukemia; [7]
  % ILS (% increase in life span of treated compared to control animals): 25%
  Weight Change: -0.7 g/mouse
P388 leukemia; [8]
  % ILS (% increase in life span of treated compared to control animals): 47%
  Weight Change: -3.8 g/mouse
P388 leukemia; [9]
  % ILS (% increase in life span of treated compared to control animals): 14%
  Weight Change: +1.8 g/mouse
P388 leukemia; [10]
  % ILS (% increase in life span of treated compared to control animals): 11%
  Weight Change: +2.1 g/mouse
P388 leukemia; [11]
  % ILS (% increase in life span of treated compared to control animals): 17%
  Weight Change: +0.5 g/mouse
P388 leukemia; [12]
  % ILS (% increase in life span of treated compared to control animals): 26%
  Weight Change: -2.0 g/mouse
P388 leukemia; mice
  in vivo activity against P388 leukemia (in words): demonstrated activity in vivo against P388 and L-1210 leukemias in mice
Ps. aeruginosa
  Zone of Inhibition: 0 mm
M. avium
  Zone of Inhibition: 0 mm
S. aureus
  Zone of Inhibition: 0 mm
S. lutea; S. lutea+, medium B (Nutrient Agar)
  Zone of Inhibition: 0 mm
S. lutea; S. luteau, medium C (PenAssay Seed Agar)
  Zone of Inhibition: 0 mm
[1]
  inhibition of growth of L-1210 cells (in words): inhibit the growth of L-1210 mouse leukemia cells in vitro
B-16 melanoma; 6.3 mg/kg/day
  % ILS (% increase in life span of treated compared to control animals): 2%
  Weight Change: +1.2 g/mouse
B-16 melanoma; 12.5 mg/kg/day
  % ILS (% increase in life span of treated compared to control animals): 4%
  Weight Change: +0.3 g/mouse
B-16 melanoma; 25 mg/kg/day
  % ILS (% increase in life span of treated compared to control animals): 11%
  Weight Change: -0.5 g/mouse
B-16 melanoma; 50 mg/kg/day
  % ILS (% increase in life span of treated compared to control animals): 7%
  Weight Change: -3.0 g/mouse
B-16 melanoma; mice
  in vivo activity against B-16 melanoma (in words): no in vivo activity in mice against B-16 melanoma

## Nc1nc(Cl)c(Br)c(-c2ccccc2)n1 [Example 6, 5-bromo-4-chloro-6-phenyl-2-pyrimidinamine]
[1]
  inhibition of growth of L-1210 cells (in words): inhibit the growth of L-1210 mouse leukemia cells in vitro

## Nc1nc(NCCN2CC2)c(F)c(-c2ccccc2)n1 [drawing 6]
[1]; L1210, read-out: L1210 ID50
  IC50: 0.78 µg/mL (≈ 2.85 µM)
[1]; L1210, read-out: L1210 ID90
  IC90: 2.1 µg/mL (≈ 7.68 µM)

## Nc1nc(Cl)cc(-c2ccccc2)n1 [Example 1, 4-chloro-6-phenyl-2-pyrimidinamine]
P. vulgaris; 18 h, Proteus vulgaris, above-identified in vitro disk plate assay, medium not given
  zone of inhibition at 1000 µg/mL: 20 mm
Test organisms
  antibacterial activity against the other test organisms (in words): No other antibacterial activity against the test organisms was observed
[1]
  inhibition of growth of L-1210 cells (in words): inhibit the growth of L-1210 mouse leukemia cells in vitro

## Nc1nc(NCCN2CC2)c(F)c(-c2ccccc2)n1 [Example 5, N'-[2-(1-aziridyl)ethyl]-5-fluoro-6-phenyl-2,4-pyrimidinediamine]
[1]
  inhibition of growth of L-1210 cells (in words): inhibit the growth of L-1210 mouse leukemia cells in vitro

## Nc1nc(Cl)c(I)c(-c2ccccc2)n1 [Example 8, 4-chloro-5-iodo-6-phenyl-2-pyrimidinamine]
[1]
  inhibition of growth of L-1210 cells (in words): inhibit the growth of L-1210 mouse leukemia cells in vitro

## Nc1nc(Cl)c(F)c(-c2ccccc2)n1 [Example 4, 4-chloro-5-fluoro-6-phenyl-2-pyrimidinamine]
[1]
  inhibition of growth of L-1210 cells (in words): inhibit the growth of L-1210 mouse leukemia cells in vitro

## Nc1nc(Cl)c(Br)c(-c2ccccc2)n1 [drawing 10]
[1]; [3]
  IC50: 0.64 µg/mL (≈ 2.25 µM)
[1]; [4]
  IC90: 1.6 µg/mL (≈ 5.62 µM)

## Nc1nc(Cl)c(Cl)c(-c2ccccc2)n1 [drawing 8]
[1]; [3]
  IC50: 0.91 µg/mL (≈ 3.79 µM)
[1]; [4]
  IC90: 2.1 µg/mL (≈ 8.75 µM)

## Nc1nc(-c2ccccc2)c(Br)c(N2CC2)n1 [Example 3, 4-(1-aziridyl)-5-bromo-6-phenyl-2-pyrimidinamine]
[1]
  inhibition of growth of L-1210 cells (in words): inhibit the growth of L-1210 mouse leukemia cells in vitro
